The values that follow come from ChEMBL document CHEMBL1201862, “PubChem BioAssay data set” (2004).

Common to all, as to assay: NCI-60 cell line screen, 48 h
Assay [1] deals with NCI-H522.
Assay [2] relates to IGROV-1.
The test system of assay [3] is SK-MEL-5.
The test system of assay [4] is RXF 393.
Assay [5] has as its system OVCAR-4.
The subject of assay [6] is SF-268.
Assay [7] relates to HOP-92.
Assay [8] relates to UACC-62.
The test system of assay [9] is HT-29.
Assay [10] has as its system M14.
Assay [11] has as its system NCI-H460.
Assay [12] has as its system SK-MEL-28.
The subject of assay [13] is SK-OV-3.
Assay [14] relates to SNB-19.
Assay [15] has as its system UO-31.
For assay [16], the system named is A549.
The subject of assay [17] is T47D.
Assay [18] has as its system TK-10.
The test system of assay [19] is BT-549.
The test system of assay [20] is NCI/ADR-RES.

SMILES strings stand for the structures.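 48-hour exposure; five concentrations; linearly interpolated endpoints. GI50: concentration for 50% inhibition of growth.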 Calls of active or inactive are those of the source. Cut-off read from the data, not from the text of the source: active = GI50 up to about 1.1 µM and inactive = higher. Bounds are passed on as bounds.

As for `O=C(O)C1CCCCC1c1c2ccc(=O)c(O)c-2oc2c(O)c(O)ccc12` (stereo unspecified), the GI50 in [1] was 14.5 µM (inactive); in assay [2] it was 26.2 µM (inactive); in [3], 25.5 µM (inactive); in [4], 69.7 µM (inactive); in [5], 21.7 µM (inactive); in assay [6], 9.38 µM (inactive). The GI50 in assay [7] is 31.6 µM (inactive); in assay [8], 23.6 µM (inactive); in [9], 74.5 µM (inactive); in assay [10], 64.7 µM (inactive); in assay [11], 37.7 µM (inactive); in assay [12] it was 69.5 µM (inactive). Also, the GI50 in assay [13] was 50.6 µM (inactive); in assay [14] it was 29.4 µM (inactive); in assay [15] it was 44.4 µM (inactive); in assay [16] it was 13 µM (inactive); in assay [17] it was 46.2 µM (inactive); in [18], > 100 µM (inactive).

`CC(C)/C=C1\CCC(CN(C)C)C1=O` (stereo unspecified): the GI50 in [1] was 0.082 µM (active); in assay [2], 7.05 µM (inactive); in [3], 4.97 µM (inactive); in assay [4] it was 0.656 µM (active); in assay [5], 7.35 µM (inactive); in [6], 8.85 µM (inactive). Moreover, the GI50 in assay [7] was 1.31 µM (inactive); in [8], 16.8 µM (inactive); in assay [9], 2.12 µM (inactive); in assay [10], 1.77 µM (inactive); in assay [11], 18.9 µM (inactive); in [12], 2.21 µM (inactive). In addition, the GI50 in [13] was 18.3 µM (inactive); in [14], 9.66 µM (inactive); in [19], 3.17 µM (inactive); in assay [20], 3 µM (inactive); in [15], 8.79 µM (inactive); in assay [16] it was 8.57 µM (inactive). In [18], the GI50 is 2.09 µM (inactive).

As to `CC(C)=Cc1cc(C)c2c(O)cc(C)c3c2c1C(C)=C(O)C3=O`, the GI50 in assay [1] was 18.3 µM (inactive); in assay [2], 27.5 µM (inactive); in assay [3] it was 17.1 µM (inactive); in assay [6], 21.1 µM (inactive); in assay [7], 7.85 µM (inactive); in assay [8] it was 20.5 µM (inactive). In addition, the GI50 is 14.9 µM (inactive) in assay [9]; 22.4 µM (inactive) in [10]; 21.2 µM (inactive) in [11]; 28.9 µM (inactive) in assay [13]; 47.4 µM (inactive) in [14]; 30.1 µM (inactive) in assay [20]. Further, the GI50 in assay [15] is 32.7 µM (inactive); in [16], 24.8 µM (inactive); in assay [17] it was 21.2 µM (inactive).

`O=C1Nc2ccccc2N/C1=C\C(=O)C(F)F`: the GI50 in [1], in assay [2], in assay [3], in [4], in [5] and in assay [6] was > 100 µM (inactive) each time. The GI50 in assay [8], in [9], in assay [10], in [11], in assay [12] and in assay [13] was > 100 µM (inactive) throughout. The GI50 in assay [14], in assay [19], in assay [20], in [15], in assay [16] and in assay [18] was > 100 µM (inactive) in each case.

As to `N#Cc1c(-c2ccc([N+](=O)[O-])cc2)c(C#N)c(=O)n(NS(=O)(=O)c2ccccc2)c1-c1ccccc1`, the GI50 in assay [1], in [2], in [3], in [4], in [5] and in assay [6] was > 100 µM (inactive) throughout. Also, the GI50 in assay [7], in [8], in assay [9], in assay [10], in assay [11] and in [12] was > 100 µM (inactive) in each case. The GI50 in assay [13], in [14], in assay [19], in [20], in assay [16] and in assay [18] was > 100 µM (inactive) each time.

Consider `COc1ccccc1Nc1nc2c([nH]1)c(=O)n(C)c(=O)n2C`, for which the GI50 in [2], in [3], in [4], in [5], in assay [6] and in [7] was > 10 µM (inactive) in each case. Moreover, the GI50 in [8], in [9], in [10], in assay [12], in assay [13] and in [16] was > 10 µM (inactive) throughout. In addition, the GI50 in assay [17] and in assay [18] was > 10 µM (inactive) throughout.

On to `CC(C)(C)c1ccc(/C=N/NC(=O)CSCC(=O)N/N=C/c2ccc(C(C)(C)C)cc2)cc1`, for which the GI50 is 4.47 µM (inactive) in assay [1]; 0.64 µM (active) in [2]; 1.87 µM (inactive) in assay [3]; 2.15 µM (inactive) in [4]; 3.88 µM (inactive) in assay [5]; 1.9 µM (inactive) in [6]. Further, the GI50 in [7] was 2.49 µM (inactive); in assay [8] it was 16.4 µM (inactive); in assay [9], 1.83 µM (inactive); in [10], 1.57 µM (inactive); in assay [11], 3.61 µM (inactive); in assay [12], 6.17 µM (inactive). For the same molecule, the GI50 in assay [13] was 5.61 µM (inactive); in assay [14] it was 2.93 µM (inactive); in assay [20], 4.26 µM (inactive); in assay [15] it was 3.71 µM (inactive); in assay [16], 2.86 µM (inactive); in [17] it was 4.88 µM (inactive). Further, in assay [18], the GI50 was 5.21 µM (inactive).

Turning to `c1ccc2c(c1)Nc1cccc3c1c-2nc1cc2ccccc2cc13`, the GI50 in [1] was 1.98 µM (inactive); in assay [2], 1.41 µM (inactive); in [3], 1.7 µM (inactive); in [4] it was 1.57 µM (inactive); in assay [5], 1.87 µM (inactive); in [6] it was 1.71 µM (inactive). Moreover, the GI50 in assay [7] was 1.51 µM (inactive); in assay [8], 2.12 µM (inactive); in assay [9], 1.72 µM (inactive); in [10] it was 2.12 µM (inactive); in assay [11], 1.65 µM (inactive); in assay [12], 1.74 µM (inactive). Further, the GI50 in assay [13] was 1.64 µM (inactive); in [14], 1.75 µM (inactive); in assay [19], 12.4 µM (inactive); in [20] it was 2.2 µM (inactive); in [15] it was 1.63 µM (inactive); in assay [16], 1.8 µM (inactive). Besides, the GI50 in [18] is 1.87 µM (inactive).

On to `N#CC(C#N)=Cn1c(=S)[nH]c2ccc([N+](=O)[O-])cc21`, for which the GI50 in assay [1], in [2], in assay [3], in assay [4], in assay [5] and in assay [6] was > 100 µM (inactive) each time. The GI50 in assay [7], in assay [8], in assay [9], in [10], in assay [11] and in assay [12] was > 100 µM (inactive) each time. Moreover, the GI50 in assay [13], in [14], in assay [20], in [15], in [16] and in [17] was > 100 µM (inactive) in each case. In assay [18], the GI50 is > 100 µM (inactive).

Turning to `CNc1cc(N)ccc1C(=O)N1CCC[C@H]1CO`, the GI50 in assay [1], in assay [2], in [6], in assay [7], in assay [8] and in [9] was > 100 µM (inactive) in each case. The GI50 in assay [10], in assay [11], in assay [12], in assay [13], in assay [14] and in assay [20] was > 100 µM (inactive) each time. Moreover, the GI50 in assay [15], in assay [16], in assay [17] and in assay [18] was > 100 µM (inactive) each time.

On to `CN1CCN(C(=S)N(C)C(=O)c2ccco2)CC1`, for which the GI50 in assay [1], in [2], in assay [3], in [4], in assay [5] and in assay [7] was > 100 µM (inactive) each time. The GI50 in assay [8], in [9], in [10], in assay [11], in [14] and in [19] was > 100 µM (inactive) throughout. Moreover, the GI50 in [15], in [16], in assay [17] and in [18] was > 100 µM (inactive) in each case.
